According to patent publication US20220030850A1, “CRYOPRESERVATIVE COMPOSITIONS AND METHODS” (REGENTS OF THE UNIVERSITY OF MINNESOTA, priority 2015, published 2022):

Key:
Jurkat cells = assay: 96-well plate freezing, post-thaw scaled raw recovery (calcein-AM/PI); format: cell-based
Procedure: The first phase of this study involved using the DE algorithm to develop a three-component cryopreservation solution used at a single cooling rate (1° C./min). Three components (trehalose, glycerol, and ectoine (TGE)) were selected as components of the exemplary freezing medium used for preservation of Jurkat cells, a hematopoietic model cell type, based on pre-screening of multiple non-DMSO components. For this single cooling rate study, the DE algorithm was programmed to output 18 vector solutions per generation with a weight=0.85 and a crossover=1. Jurkat cells cryopreserved in 10% DMSO at a cooling rate of 1° C./min were used as a control.
Cooling rate influences cell survival, and the preferred cooling rate for a given application can depend, at least in part, on the composition of the freezing medium and the cell type being frozen. […] To assess both cooling rate and the composition of the solution, the DE algorithm was programmed to output 27 vector solutions per generation with weight=0.85 and a crossover=1. Solutions were separated into categories based on their DE algorithm defined cooling rate, and were frozen in batches at a cooling rate of […], 0.5° C./min, 1° C./min, 3° C./min, 5° C./min, or 10° C./min. Results were normalized and scaled raw recovery is reported, allowing results from all cooling rates and all generations to be compared directly. […]
(§1) After 96 well plates were thawed, calcein-acetoxymethyl (AM)/propidium iodide was added to each well and the wells were covered from light and placed in a 37° C. incubator for 30 minutes to allow the live cells to cleave calcein-AM. The plates were then analyzed for fluorescence on a plate reader. Raw fluorescence values were used to calculate the number of live and dead cells present in each well by correlating to a control curve of unfrozen cells. The live cell recovery was calculated by dividing the number of live cells present in thawed samples (calcein-AM plate reader fluorescence) by the number of live cells seeded pre-freeze (AO/PI counts). […]

mesenchymal stem cells = assay: as above; format: cell-based, human; settings: 10% DMSO at 1° C./min, control
From the text: FIG. 2 and FIG. 3 relate to a three-component TGE solution tested with Jurkat cells. […] These components were selected based on pre-screening experiments performed to identify combinations with high potential recovery. The DE algorithm was programmed to output 27 vector solutions per generation with a weight=0.85 and a crossover=1. Experimental testing and result normalization was similar to the methods described above.
In both screening and DE algorithm experiments, cells were frozen in 96-well plates to limit the number of cells and volumes of reagent necessary, and to increase the number of samples that could be tested at one time. Solutions were made at 2× their final concentration in distilled H2O (diH2O). […]
as §1

lysozyme = lysozyme (Gallus gallus, UniProt P00698); assay: Differential scanning calorimetry, denaturation temperature of lysozyme in osmolyte solution; format: physicochemical; settings: 1 mg/ml lysozyme in 20 mM HEPES buffer; single osmolytes 600 mM; heated at 1° C./min; pH 7.3
Sequence of lysozyme (P00698 19-147): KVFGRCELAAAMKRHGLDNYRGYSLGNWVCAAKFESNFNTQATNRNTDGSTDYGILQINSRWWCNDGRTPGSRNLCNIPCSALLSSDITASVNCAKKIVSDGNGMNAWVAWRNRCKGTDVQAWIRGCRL
Procedure: Lysozyme powder was dissolved into each solution reaching final concentration of 100 mg/ml and then refrigerated. Lysozyme in DPBS solution was used as control. For DSC measurements, experiment solution was made by dissolving osmolyte into 20 mM HEPES buffer and the concentration of osmolyte in each solution remained same as in DPBS solution. Lysozyme powder was dissolved into each solution reaching final concentration of 1 mg/ml and kept refrigerated. Lysozyme in HEPES buffer was used as control. The pH of solutions was 7.3 measured by Beckman 350 meter. Differential scanning calorimetry was performed on a differential scanning calorimeter (Q1000, TA Instruments, New Castle, Del.). Osmolyte solutions containing lysozyme were heated in order to determine the denaturation temperature of lysozyme. Experimental solutions were heated from room temperature to 90° C. at 1° C./min. Specific heat, Cp, was calculated from the heat flow data assuming Cp as a function of temperature were analyzed using OriginPro software (OriginLab Corp., Northampton, Mass.) to subtract curve baseline. The midpoint temperature, Tm, was obtained as the temperature corresponding to the maximum specific heat value from the baseline and the denaturation temperature was assumed to be Tm^32.

C[S+](C)[O-] [DMSO, dimethyl sulfoxide]
recovery of Jurkat cells (Jurkat cells; 10% DMSO at 1° C./min, control, 96-well): 16% | recovery for MSCs (mesenchymal stem cells): 21%

OC[C@H]1O[C@@](CO)(O[C@H]2O[C@H](CO)[C@@H](O)[C@H](O)[C@H]2O)[C@@H](O)[C@@H]1O [Sucrose]
recovery of Jurkat cells, sugar synergy study (Jurkat cells; 150, 300, 600 mM total sugar, FIG. 8): outperformed monosaccharides | Denaturation temperature Tm of lysozyme (lysozyme): 84.4 °C
